#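 Step 1: Grow cells in 96-well plates. Step 2: Expose to compound for 48 hours at 5 concentrations. Step 3: Interpolate endpoints linearly; if unreached, use highest concentration. At the GI50, growth is halved.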 The source made the active and inactive calls. No stated cut-off is given here; in the data, active = GI50 up to about 1.1 µM and inactive = higher.
# Columns and labels:
# Test in all cases: inhibition of tumour cell growth, NCI panel, 48 h
# [1] = tested on: OVCAR-8
# [2] = tested on: CCRF-CEM
# [3] = tested on: MDA-MB-435
# [4] = tested on: HCT-15
# [5] = tested on: HCT-116
# [6] = tested on: SK-OV-3
# [7] = tested on: SF-268
# [8] = tested on: SF-539
# [9] = tested on: M14
# [10] = tested on: NCI-H23
# [11] = tested on: SK-MEL-28
# [12] = tested on: UACC-257
# [13] = tested on: TK-10
# [14] = tested on: UACC-62
# [15] = tested on: A498
# [16] = tested on: HL-60
# [17] = tested on: OVCAR-3
# [18] = tested on: MDA-MB-231
# [19] = tested on: K562
# [20] = tested on: MOLT-4
# [21] = tested on: A549
# [22] = tested on: ACHN
# [23] = tested on: SNB-19
# [24] = tested on: UO-31
# [25] = tested on: MCF7
# [26] = tested on: OVCAR-5
# [27] = tested on: RPMI-8226
# [28] = tested on: U-251
# [29] = tested on: SK-MEL-2
# [30] = tested on: LOX IMVI
# [31] = tested on: T47D
# [32] = tested on: SW-620
# [33] = tested on: NCI-H460
# [34] = tested on: HOP-62
# [35] = tested on: 786-0
# [36] = tested on: EKVX
# [37] = tested on: HCC 2998
# [38] = tested on: BT-549
# [39] = tested on: SN12C
# [40] = tested on: DU-145
# [41] = tested on: Malme-3M
# [42] = tested on: SK-MEL-5
# [43] = tested on: HOP-92
# [44] = tested on: IGROV-1
# [45] = tested on: MDA-N
# [46] = tested on: KM12
# [47] = tested on: Hs-578T
# [48] = tested on: RXF 393
# [49] = tested on: NCI-H522
# [50] = tested on: CAKI-1
# [51] = tested on: SNB-75
# [52] = tested on: OVCAR-4
# [53] = tested on: NCI/ADR-RES
# [54] = tested on: HT-29
# [55] = tested on: SF-295
# [56] = tested on: PC-3
# [57] = tested on: NCI-H226
# [58] = tested on: COLO 205
smiles,measurement,setting,value
O=C(O)/C(=C/c1ccccc1)c1ccccc1,GI50,[1],> 100 µM (inactive)
same,GI50,[2],> 100 µM (inactive)
same,GI50,[3],> 100 µM (inactive)
same,GI50,[4],> 100 µM
same,GI50,[5],> 100 µM (inactive)
same,GI50,[6],> 100 µM (inactive)
same,GI50,[7],> 100 µM (inactive)
same,GI50,[8],> 100 µM (inactive)
same,GI50,[9],> 100 µM (inactive)
same,GI50,[10],> 100 µM (inactive)
same,GI50,[11],> 100 µM (inactive)
same,GI50,[12],> 100 µM (inactive)
same,GI50,[13],> 100 µM (inactive)
same,GI50,[14],> 100 µM (inactive)
same,GI50,[15],> 100 µM (inactive)
same,GI50,[16],> 100 µM (inactive)
same,GI50,[17],> 100 µM (inactive)
same,GI50,[18],> 100 µM (inactive)
same,GI50,[19],> 100 µM (inactive)
same,GI50,[20],> 100 µM (inactive)
same,GI50,[21],> 100 µM (inactive)
same,GI50,[22],> 100 µM (inactive)
same,GI50,[23],> 100 µM (inactive)
same,GI50,[24],> 100 µM (inactive)
same,GI50,[25],> 100 µM (inactive)
same,GI50,[26],> 100 µM (inactive)
same,GI50,[27],> 100 µM (inactive)
same,GI50,[28],> 100 µM (inactive)
same,GI50,[29],> 100 µM (inactive)
same,GI50,[30],> 100 µM (inactive)
same,GI50,[31],> 100 µM (inactive)
same,GI50,[32],> 100 µM (inactive)
same,GI50,[33],> 100 µM (inactive)
same,GI50,[34],> 100 µM (inactive)
same,GI50,[35],> 100 µM (inactive)
same,GI50,[36],> 100 µM (inactive)
same,GI50,[37],> 100 µM (inactive)
same,GI50,[38],> 100 µM (inactive)
same,GI50,[39],> 100 µM (inactive)
same,GI50,[40],> 100 µM (inactive)
same,GI50,[41],> 100 µM (inactive)
same,GI50,[42],> 100 µM (inactive)
same,GI50,[43],46.6 µM (inactive)
same,GI50,[44],> 100 µM (inactive)
same,GI50,[45],> 100 µM (inactive)
same,GI50,[46],> 100 µM (inactive)
same,GI50,[47],> 100 µM (inactive)
same,GI50,[48],> 100 µM (inactive)
same,GI50,[49],> 100 µM (inactive)
same,GI50,[50],> 100 µM (inactive)
same,GI50,[51],> 100 µM (inactive)
same,GI50,[52],> 100 µM (inactive)
same,GI50,[53],> 100 µM (inactive)
same,GI50,[54],> 100 µM (inactive)
same,GI50,[55],> 100 µM (inactive)
same,GI50,[56],> 100 µM (inactive)
N#CC(C#N)=Cc1ccc(C=C2SC3=C(SCCS3)S2)s1,GI50,[1],29.9 µM (inactive)
same,GI50,[2],2.48 µM (inactive)
same,GI50,[3],0.82 µM (active)
same,GI50,[4],0.818 µM
same,GI50,[5],3.24 µM (inactive)
same,GI50,[6],74.8 µM (inactive)
same,GI50,[7],40.4 µM (inactive)
same,GI50,[8],0.63 µM (active)
same,GI50,[9],12.4 µM (inactive)
same,GI50,[10],6.68 µM (inactive)
same,GI50,[11],> 100 µM (inactive)
same,GI50,[12],9.38 µM (inactive)
same,GI50,[13],2.07 µM (inactive)
same,GI50,[14],2.89 µM (inactive)
same,GI50,[15],10.4 µM (inactive)
same,GI50,[16],0.286 µM (active)
same,GI50,[17],2.5 µM (inactive)
same,GI50,[18],33.7 µM (inactive)
same,GI50,[20],2.59 µM (inactive)
same,GI50,[21],55.5 µM (inactive)
same,GI50,[22],> 100 µM (inactive)
same,GI50,[23],44.1 µM (inactive)
same,GI50,[24],> 100 µM (inactive)
same,GI50,[25],2.24 µM (inactive)
same,GI50,[26],3.72 µM (inactive)
same,GI50,[27],0.881 µM (active)
same,GI50,[57],2.27 µM (inactive)
same,GI50,[28],12.4 µM (inactive)
same,GI50,[29],> 100 µM (inactive)
same,GI50,[31],> 100 µM (inactive)
same,GI50,[32],4.38 µM (inactive)
same,GI50,[33],7.59 µM (inactive)
same,GI50,[34],80.9 µM (inactive)
same,GI50,[35],13.4 µM (inactive)
same,GI50,[36],> 100 µM (inactive)
same,GI50,[37],15.8 µM (inactive)
same,GI50,[38],1.28 µM (inactive)
same,GI50,[39],66.2 µM (inactive)
same,GI50,[40],> 100 µM (inactive)
same,GI50,[58],8.73 µM (inactive)
same,GI50,[41],> 100 µM (inactive)
same,GI50,[42],3.33 µM (inactive)
same,GI50,[43],17.6 µM (inactive)
same,GI50,[44],4.52 µM (inactive)
same,GI50,[45],0.618 µM (active)
same,GI50,[46],2.25 µM (inactive)
same,GI50,[47],41.6 µM (inactive)
same,GI50,[49],2.99 µM (inactive)
same,GI50,[50],3.47 µM (inactive)
same,GI50,[51],16.7 µM (inactive)
same,GI50,[52],9.68 µM (inactive)
same,GI50,[53],1.63 µM (inactive)
same,GI50,[54],3.39 µM (inactive)
same,GI50,[55],24.4 µM (inactive)
same,GI50,[56],6.04 µM (inactive)

# From ChEMBL document CHEMBL1201862, “PubChem BioAssay data set” (2004)
